Source: US9896471B2, “Salt of 1-(2-deoxy-2-fluoro-4-thio-β-D-arabinofuranosyl)cytosine” (FUJIFILM Corporation, priority 2012, dated 2018)
Values after ≈ are worked out from the molar mass of the structure shown.

Key:
BxPC-3 = assay: Antitumor activity: cell proliferation inhibition (ATPlite); type: cell-based; settings: BxPC-3, 1000 cells/well, 3 days culture
Experimental: (§1) Cells at the logarithmic phase were inoculated on a 96-well plate at a density of 1000 cells/well (BxPC-3, MIA PaCa-2) or 3000 cells/well (Capan-1), and cultured overnight at 37° C. in a CO2 incubator. On the next day, serially diluted solutions of each test compound were added, and culture was performed for 3 days in an incubator. After completion of the culture, by using a cell proliferation assay kit ATPlite (Perkin Elmer), and a plate reader Envision (Perkin Elmer), emission was measured. Concentrations of the test compounds providing 50% of cell proliferation inhibition (IC50) were calculated by fitting using a sigmoid function. The solutions of the test compounds were prepared by diluting them with PBS (pH 7.4) at 10 mM, and further diluting the 10 mM solutions with PBS (pH 7.4), and used in the test.

Capan-1 = assay: as above; type: cell-based; settings: Capan-1, 3000 cells/well, 3 days culture
Experimental: as §1

MIA PaCa-2 = assay: as above; type: cell-based; settings: MIA PaCa-2, 1000 cells/well, 3 days culture
Experimental: as §1

[1] = Flowability test (compaction rate); type: physicochemical; settings: powder sieved 177 μm mesh; (compacted − loose bulk density)/compacted bulk density × 100
From the text: The obtained powdery sample was roughly filled in a glass measuring cylinder (10 cm^3), the upper surface of the powder layer was horizontally smoothened, and the value of the volume was read. The weight of the powdery sample was divided with the volume to obtain loose bulk density (g/cm^3).
Then, the glass measuring cylinder filled with the powdery sample was tapped by using a general powdery characteristic measuring apparatus (Powdertester Type PT-E, Hosokawa Micron CORP.). When the volume of the powder layer no longer changed, the value of the volume was read. The weight of the powdery sample was divided with the volume to obtain compacted bulk density (g/cm^3).
The compaction rate (%) was obtained in accordance with the following equation. Compaction rate (%)=[(Compacted bulk density−Loose bulk density)/Compacted bulk density]×100

Tableting property test = type: physicochemical; settings: average of five tabletings; 5 points surface has gloss, 1 point surface is chipped, 0 point tablets stick to pestle; 1000 kgf, 100 mg tablet
Experimental: The obtained powdery sample was compression-molded by using a tableting machine (Tableting Machine HT-P18A, Hata Iron Works, Ltd.; tableting diameter, 6.5 mm; tableting pressure, 1000 kgf; tablet weight, 100 mg) to obtain tablets. The obtained tablets were macroscopically observed, and graded according to the following criteria.
5 Points: Surface has gloss.
4 Points: Surface is slightly roughened.
3 Points: Surface is roughened.
2 Points: Surface is slightly chipped.
1 Point: Surface is chipped.
0 Point: Tablets stick to pestle, and cannot be unstuck.
The tableting was performed five times, and averages of the scores of the tablets were calculated.

tumors = settings: orally administered to mice; Non-patent documents 1 and 2; cited from earlier work
[2] = Stability test (deliquescence on storage); type: physicochemical; settings: stored 2 weeks, open state, 60° C. and 75% relative humidity, macroscopic observation
Experimental: The compounds of Examples 1 and 2 were stored for 2 weeks in an open state under conditions of 60° C. and 75% relative humidity. The test compounds were macroscopically observed after the storage, and presence or absence of deliquescence was examined.

Experimental for Solubility test in water: Each of the test compounds and the comparative compound was added to water, and the mixture was stirred at room temperature for 24 hours. The insoluble matter was removed by filtration using a membrane filter (0.2 μm). The filtrate was analyzed by high performance liquid chromatography (HPLC) to obtain the solubility.

Compound	IC50 (BxPC-3; Homo sapiens, 72 h)	IC50 (Capan-1; Homo sapiens, 72 h)	IC50 (MIA PaCa-2; Homo sapiens, 72 h)	Compaction rate [1]	Score (tableting property) (Tableting property test)	antitumor activity (tumors)	solubility at 24 h (Solubility test in water; thermodynamic from solid)	IC50 (BxPC-3)	IC50 (Capan-1)	IC50 (MIA PaCa-2)	presence or absence of deliquescence [2]	Solubility in water (Solubility test in water; room temperature, stirred 24 hours, 0.2 μm filtration, HPLC)
Nc1ccn([C@@H]2S[C@H](CO)[C@@H](O)[C@@H]2F)c(=O)n1 [Comparative compound, 1-(2-deoxy-2-fluoro-4-thio-β-D-arabinofuranosyl)cytosine]	45 nM	35 nM	382 nM	41%	1.0	potent antitumor activity	2000 µg/mL (≈ 7.65 mM)	–	–	–	–	–
CS(=O)(=O)O.Nc1ccn([C@@H]2S[C@H](CO)[C@@H](O)[C@@H]2F)c(=O)n1 [Example 1, methanesulfonate of 1-(2-deoxy-2-fluoro-4-thio-β-D-arabinofuranosyl)cytosine]	–	–	–	18%	4.5	–	–	45 nM	36 nM	373 nM	did not deliquesce	79 mg/mL
Cl.Nc1ccn([C@@H]2S[C@H](CO)[C@@H](O)[C@@H]2F)c(=O)n1 [Example 2, hydrochloride of 1-(2-deoxy-2-fluoro-4-thio-β-D-arabinofuranosyl)cytosine]	–	–	–	21%	5.0	–	–	41 nM	31 nM	417 nM	did not deliquesce	–
